What was measured:
retinal neurons = assay: Damage-dependent cell fusion in vivo after intravitreal transplantation in R26Y eyes; design: species or system mouse; settings: NMDA-damaged eyes of R26Y mice
Description: (§1) Mice at the age of 3 months were anaesthetised by injection of ketamine: metomidine (80 mg/kg: 1.0 mg/kg, intraperitoneal (i.p.)). To induce retinal damage, the animals were treated intravitreally with 2 μl of 20 mM N-methyl-D-aspartate (NMDA) (total 40 nmol; Sigma) for 24 h [Timmers et al., Mol Vis 7, 131-137 (2001)]. Control eyes received 2 μl PBS. For the BrdU incorporation assays, the mice received intraperitoneal (i.p.) BrdU administration of 50 mg/kg body weight.
Retinal stem and progenitor cells (RSPCs) were isolated from the ciliary margin of adult Cre mice as previously described [Sanges et al., Proc Natl Acad Sci USA 103, 17366-17371 (2006)]. […]
(§2) Tissues were fixed by immersion in 4% paraformaldehyde overnight, and then embedded in OCT compound (Tissue-Tek). Horizontal serial sections of 10 μm thickness were processed for immunohistochemistry, and visualisation of Nanog-GFP and Rosa26-YFP fluorescence was performed by fluorescent microscopy.
(§3) Percentages of GFP and YFP positive cells were evaluated counterstaining the tissue sections with DAPI (Vectashield, Vector Laboratories, Burlingame, Calif., USA), and they were photographed using either an Axioplan microscope (Zeiss) or a Leica laser confocal microscope system.
The numbers of immunoreactive or of Nanog-GFP- and -YFP-positive cells within three different retinal areas (40× field) were counted in individual sections. […]

Nanog-GFP transgene = assay: In-vivo reprogramming of retinal neurons after fusion, Nanog-GFP-puro mice; design: species or system mouse; settings: for GFP-positive cells after transplantation of pretreated ESCs: ESCs pretreated before transplantation, NMDA-injured eyes
Description: as §1
(§4) The stem cells (SCs) were left non-treated or were pretreated with 100 ng/ml Wnt3a or 1 μM BIO, for 24 h, and finally 5×10^5 cells were injected intravitreally into the eyes of the anaesthetised mice. The mice were sacrificed by cervical dislocation, and their eyeballs were enucleated for histological analyses.
as §2, §3
(§5) The numbers of immunoreactive or of Nanog-GFP- and -YFP-positive cells within three different retinal areas (40× field) were counted in individual sections. A total of ten serial sections were examined for each eye, from at least three different mice. For statistical analysis, the data were expressed as means±SEM, as pooled from at least three independent experiments, each carried out in duplicate. The experiments were performed using at least three different mice. Differences were examined using the unpaired Student t-test.

Nestin-CRE transgene [1] = assay: Endogenous BM cell fusion-mediated reprogramming induced by intravitreal BIO in Nestin-Cre mice with BM^R26Y; format: in vivo, mouse; settings: 24 h
Description: BM transplantation was conducted as previously reported with minor modifications. The BM of 4- to 6-week-old R26Y or Nestin-Cre recipient mice was reconstituted with BM cells from the tibias and femurs of RFP/CRE or R26Y transgenic mice respectively. BM cells (1×10^7 cells) were injected intravenously into the recipients 3 hours after irradiation with γ-rays (9 Gy). The eyes of the recipients were protected with lead shields to prevent radiation-induced damage (radiation retinopathy). Four weeks after transplantation, the peripheral blood of chimeric mice was extracted from the tail vein, and the reconstituted BM was assessed.
For fluoresceine immunostaining, the primary antibodies used were: anti-Nanog (1:200, R&D), anti-Oct4 (1:100, AbCam), anti-Nestin (1:300, Abcam), anti-GATA4 (1:500, Abcam), anti-Otx2 (1:200, Abcam), anti-Noggin (1:200, Abcam), anti-Hand1 (1:400, Abcam), anti-Tuj-1 (1:100, Abcam), anti-Thy1.1 (1:100, Abcam), anti-syntaxin (1:50, Sigma), anti-glutamine synthetase (Sigma, 1:100) anti-Annexin V (1:200, Abcam), anti-Ki67 (Sigma, 1.100) and anti-BrdU (1:300, Sigma). The secondary antibodies used were: anti-mouse IgG and anti-rabbit IgG antibodies conjugated with Alexa Fluor 488, Alexa Fluor 546 or Alexa Fluor 633 (1:1000; Molecular Probes, Invitrogen).
as §5

β-catenin signalling = assay: Activation of β-catenin signalling in treated HSPCs (RT-PCR of Axin2, nuclear translocation of β-catenin); format: cell-based, mouse
Description: According to Treatment A, activation of the Wnt/β-catenin signalling pathway is, at least partially, provided by the implanted cells having their Wnt/β-catenin signalling pathway activated and being selected from the group consisting of a hematopoietic stem cell, a progenitor cell, and a mesenchymal stem cell. The subject to be treated may also have activated the Wnt/β-catenin signalling pathway after retinal damage or injury. In general, the Wnt/β-catenin signalling pathway is activated when the target genes are transcribed; by illustrative, activation of the Wnt/β-catenin signalling pathway may be confirmed by conventional techniques, for example, by analyzing the expression of the target genes, e.g., Axin2, by means known by the skilled person in the art to analyze the expression of genes, such as, for example, RT-PCR (reverse transcription-polymerase chain reaction), or by detection of β-catenin translocation in the nuclei of the cells by conventional techniques, such as, for example, by immunostaining, or by detecting the phosphorylation of Dishevelled or the phosphorylation of the LRP tail, etc.
The stem cells (SCs) were left non-treated or were pretreated with 100 ng/ml Wnt3a or 1 μM BIO, for 24 h, and finally 5×10^5 cells were injected intravitreally into the eyes of the anaesthetised mice. […]

neural progenitor cells = settings: cited from earlier work; for reprogramming of neural precursor cells after cell fusion: periodic activation of the Wnt/β-catenin pathway in ESCs
human GSK-3 = settings: cited from earlier work
Nestin-CRE transgene [2] = assay: In-vivo reprogramming of retinal neurons after fusion, Nestin-CRE mice; design: species or system mouse; settings: injected immediately after NMDA, HSPCs after 24 h
Description: as §1, §4, §2
Percentages of GFP and YFP positive cells were evaluated counterstaining the tissue sections with DAPI (Vectashield, Vector Laboratories, Burlingame, Calif., USA), and they were photographed using either an Axioplan microscope (Zeiss) or a Leica laser confocal microscope system. […]

β-catenin = β-catenin immunofluorescence in retinal sections of NMDA-treated eyes; format: in vivo, mouse; settings: NMDA-damaged eyes
Description: FIG. 12. Analysis of reprogramming of retinal neurons after fusion. (A) Immunofluorescence staining using an anti β-catenin antibody (red) was performed on sections from eyes treated either with NMDA, with both NMDA and DKK1 or untreated as control. The expression and nuclear accumulation of β-catenin in retinal cells detected in NMDA-damaged eyes (red arrows) is reduced after treatment with DKK1. Scale bar: 20 μm. (B) Schematic representation of in-vivo reprogramming experimental plan. Red-labelled SPCs either non-treated (control), or treated for 24 h with BIO were injected in NMDA-damaged or undamaged eyes of Nanog-GFP-Puro recipient mice. The expression of GFP in reprogrammed hybrids was analysed one day after injection. […] Nuclei were counterstained with DAPI.
To assess the role of activation of the endogenous Wnt/β-catenin signalling pathway in the reprogramming of retinal neurons, in both of these mouse models, DKK1 was also injected immediately after NMDA injection; DKK1 is an inhibitor of the Wnt/β-catenin pathway [Osakada et al. (2007) cited supra, FIG. 12A]. HSPCs were transplanted after 24 h, and mice were sacrificed 24 h later.

O=C1Nc2cc(Br)ccc2/C1=C1/Nc2ccccc2/C1=N\O [BIO, 6-bromoindirubin-3'-oxime]
effect of pre-treatment on fusion efficiency of HSPCs, ESCs or RSPCs (retinal neurons): did not enhance the fusion efficiency
GFP-positive cells after transplantation of pretreated ESCs (Nanog-GFP transgene): strikingly increased
YFP-positive hybrids Annexin-V positive (Nestin-CRE transgene [1]; NMDA+BIO intravitreal): 1%
YFP-positive hybrids positive for Ki67 (Nestin-CRE transgene [1]; NMDA+BIO intravitreal): About 8%
YFP-positive hybrids positive for Nanog (Nestin-CRE transgene [1]; NMDA+BIO intravitreal): 70%
YFP-positive hybrids positive for Oct4 (Nestin-CRE transgene [1]; NMDA+BIO intravitreal): 50%
YFP-positive cells in the gcl and inl (Nestin-CRE transgene [1]; intravitreal with NMDA): observed
β-catenin signalling in HSPCs (β-catenin signalling): activates β-catenin signalling
fusion efficiency of ESCs with neural progenitor cells (neural progenitor cells; in vitro): does not increase the fusion efficiency
reprogramming of neural precursor cells after cell fusion (neural progenitor cells): strongly enhances

Nc1nc(NCCNc2ncc(-n3ccnc3)c(-c3ccc(Cl)cc3Cl)n2)ccc1[N+](=O)[O-] [CHIR 98014, 6-pyridinediamine, N6-[2-[[4-(2,4-dichlorophenyl)-5-(1H-imidazol-1-yl)-2-pyrimidinyl]amino]ethyl]-3-nitro-]
inhibition of human GSK-3 (human GSK-3): potently

Cc1c[nH]c(-c2cnc(NCCNc3ccc(C#N)cn3)nc2-c2ccc(Cl)cc2Cl)n1 [CHIR 99021, 6-{2-[4-(2,4-dichloro-phenyl)-5-(4-methyl-1H-imidazol-2-yl)-pyrimidin-2-ylamino]-ethylamino}-nicotinonitrile]
inhibition of human GSK-3 (human GSK-3): potently

B1: Wnt3a: Wnt protein isoform, Wnt/β-catenin signalling pathway activator (protein, UniProt P56704 19-352, looked up)
Protein Wnt-3a: SYPIWWSLAVGPQYSSLGSQPILCASIPGLVPKQLRFCRNYVEIMPSVAEGIKIGIQECQHQFRGRRWNCTTVHDSLAIFGPVLDKATRESAFVHAIASAGVAFAVTRSCAEGTAAICGCSSRHQGSPGKGWKWGGCSEDIEFGGMVSREFADARENRPDARSAMNRHNNEAGRQAIASHMHLKCKCHGLSGSCEVKTCWWSQPDFRAIGDFLKDKYDSASEMVVEKHRESRGWVETLRPRYTYFKVPTERDLVYYEASPNFCEPNPETGSFGTRDRTCNVSSHGIDGCDLLCCGRGHNARAERRREKCRCVFHWCCYVSCQECTRVYDVHTCK
GFP-positive cells after transplantation of pretreated ESCs (Nanog-GFP transgene): strikingly increased
reprogramming of neural precursor cells after cell fusion (neural progenitor cells): strongly enhances

B2: DKK1: an inhibitor of the Wnt/β-catenin pathway (protein, UniProt O94907 32-266, looked up)
Dickkopf-related protein 1: TLNSVLNSNAIKNLPPPLGGAAGHPGSAVSAAPGILYPGGNKYQTIDNYQPYPCAEDEECGTDEYCASPTRGGDAGVQICLACRKRRKRCMRHAMCCPGNYCKNGICVSSDQNHFRGEIEETITESFGNDHSTLDGYSRRTTLSSKMYHTKGQEGSVCLRSSDCASGLCCARHFWSKICKPVLKEGQVCTKHRRKGSHGLEIFQRCYCGEGLSCRIQKDHHQASNSSRLHTCQRH
reprogramming of neuron-HSPC hybrids (Nestin-CRE transgene [2]): almost completely blocked
reprogramming of neuron-HSPC hybrids (Nanog-GFP transgene; injected immediately after NMDA, HSPCs after 24 h, Nanog-GFP-puro mice): almost completely blocked
expression and nuclear accumulation of β-catenin in retinal cells (β-catenin): reduced

From US20140199277A1, “Methods of Treatment of Retinal Degeneration Diseases” (priority 2011, published 2014)
